Assay results taken from patent US9951064B2, “Azaindazole compounds as inhibitors of T790M containing EGFR mutants” (Genentech, Inc., priority 2013, dated 2018).
Read-outs that look alike come from different tables or passages of the source.

Columns and labels:
[1] = tested on: H1975 (EGFR T790M/L858R) cell proliferation; experiment: H1975 proliferation assay (Cell Titer-Glo); format: cell-based; conditions: NCI-H1975 cells, 72 hour incubation
Experimental: H1975 Proliferation Assays
All cell culture reagents were purchased from Invitrogen/Gibco. Cells are cultured at 37° C. at 5% CO2 and split as recommended by ATCC.

[2] = target: T1, EGFR T790M L858R (Homo sapiens, UniProt P00533, L858R/T790M); experiment: EGFR T790M L858R biochemical assay (Caliper mobility shift); conditions: 5 μM ATP; apparent Ki (Morrison fit) converted by Cheng-Prusoff, Km of ATP 1.3 μM
T1 construct: purchased Life Technologies PV4879
Experimental: The exemplified compounds described herein were tested according to the assay below. The enzyme data reported in Tables 4-5 is generally a representative of multiple experiments.
Reactions proceed for 30 minutes at room temperature (22° C.) and are terminated with 80 mM 2,2′,2″,2′″-(ethane-1,2-diyldinitrilo)tetraacetic acid (EDTA). Product is detected using the Caliper mobility shift detection method where product and substrate are electrophoretically separated and measured.

[3] = Homo sapiens, NCI-H1975, 72 h, read-out: H1975 antiproliferative EC50

T1 sequence (P00533 25-1210 T790M/L858R): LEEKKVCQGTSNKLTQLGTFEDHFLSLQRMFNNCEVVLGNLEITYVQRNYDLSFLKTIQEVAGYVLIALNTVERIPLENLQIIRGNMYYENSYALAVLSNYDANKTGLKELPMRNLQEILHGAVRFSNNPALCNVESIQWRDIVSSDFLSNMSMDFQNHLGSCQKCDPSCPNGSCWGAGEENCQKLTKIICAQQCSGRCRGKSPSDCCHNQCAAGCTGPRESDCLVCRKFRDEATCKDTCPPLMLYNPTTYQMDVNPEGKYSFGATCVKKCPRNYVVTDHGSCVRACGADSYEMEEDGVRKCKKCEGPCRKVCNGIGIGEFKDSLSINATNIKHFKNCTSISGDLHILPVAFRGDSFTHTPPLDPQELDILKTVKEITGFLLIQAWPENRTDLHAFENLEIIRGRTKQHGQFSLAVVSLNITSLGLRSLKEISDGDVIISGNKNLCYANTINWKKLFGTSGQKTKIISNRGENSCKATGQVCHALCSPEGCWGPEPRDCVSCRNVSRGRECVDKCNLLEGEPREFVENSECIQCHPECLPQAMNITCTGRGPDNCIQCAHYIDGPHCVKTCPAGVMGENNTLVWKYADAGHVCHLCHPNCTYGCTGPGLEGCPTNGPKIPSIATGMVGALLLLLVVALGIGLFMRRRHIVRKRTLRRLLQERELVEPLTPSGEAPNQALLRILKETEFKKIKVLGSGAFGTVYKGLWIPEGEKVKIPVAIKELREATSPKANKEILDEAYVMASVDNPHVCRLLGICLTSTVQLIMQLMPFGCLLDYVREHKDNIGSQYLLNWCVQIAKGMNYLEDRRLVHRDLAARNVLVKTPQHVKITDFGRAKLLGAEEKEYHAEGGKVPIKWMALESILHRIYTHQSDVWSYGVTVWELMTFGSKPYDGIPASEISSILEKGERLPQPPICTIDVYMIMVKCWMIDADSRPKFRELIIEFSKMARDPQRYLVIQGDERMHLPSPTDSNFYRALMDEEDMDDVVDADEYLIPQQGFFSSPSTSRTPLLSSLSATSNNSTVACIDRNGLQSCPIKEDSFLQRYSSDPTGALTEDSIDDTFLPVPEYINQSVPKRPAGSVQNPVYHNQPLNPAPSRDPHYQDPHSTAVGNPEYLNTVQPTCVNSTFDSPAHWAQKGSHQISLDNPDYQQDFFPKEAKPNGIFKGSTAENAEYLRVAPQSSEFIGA

EC50 [1, 3]	SMILES	other results
361 nM	CCC(C)n1nc(N2CC(C(C)(C)O)C2)c2cnc(Nc3ccnc(-c4cnn(S(=O)(=O)C5CC5)c4)n3)cc21 (single isomer, unassigned) [Example 13, enantiomer 1, 2-(1-(1-(sec-Butyl)-6-((2-(1-(cyclopropylsulfonyl)-1H-pyrazol-4-yl)pyrimidin-4-yl)amino)-1H-pyrazolo[4,3-c]pyridin-3-yl)azetidin-3-yl)propan-2-ol]	
	CCC(C)n1nc(N2CC(C(C)(C)O)C2)c2cnc(Nc3ccnc(-c4cnn(S(=O)(=O)C5CC5)c4)n3)cc21 (single isomer, unassigned) [Example 13, enantiomer 2, 2-(1-(1-(sec-Butyl)-6-((2-(1-(cyclopropylsulfonyl)-1H-pyrazol-4-yl)pyrimidin-4-yl)amino)-1H-pyrazolo[4,3-c]pyridin-3-yl)azetidin-3-yl)propan-2-ol]	EC50 ([1]; listed as 13, enantiomer 2, read-out: H1975 antiproliferative EC50): 633 nM
610 nM	CCC(C)n1nc(N2CCOCC2)c2cnc(Nc3ccnc(-c4cnn(S(=O)(=O)C5CC5)c4)n3)cc21 (single isomer, unassigned) [Example 27, enantiomer 1, 1-(sec-Butyl)-N-(2-(1-(cyclopropylsulfonyl)-1H-pyrazol-4-yl)pyrimidin-4-yl)-3-morpholino-1H-pyrazolo[4,3-c]pyridin-6-amine]	
	CCC(C)n1nc(N2CCOCC2)c2cnc(Nc3ccnc(-c4cnn(S(=O)(=O)C5CC5)c4)n3)cc21 (single isomer, unassigned) [Example 27, enantiomer 2, 1-(sec-Butyl)-N-(2-(1-(cyclopropylsulfonyl)-1H-pyrazol-4-yl)pyrimidin-4-yl)-3-morpholino-1H-pyrazolo[4,3-c]pyridin-6-amine]	EC50 ([1]; listed as 27, enantiomer 2, read-out: H1975 antiproliferative EC50): 1140 nM
> 10000 nM	CC(C)n1nc(F)c2cnc(Nc3ccnc(-c4cnn(S(=O)(=O)C5CC5)c4)n3)cc21 [Example 7, N-(2-(1-(Cyclopropylsulfonyl)-1H-pyrazol-4-yl)pyrimidin-4-yl)-3-fluoro-1-isopropyl-1H-pyrazolo[4,3-c]pyridin-6-amine]	Ki [2]: 298 nM
	COC1CCN(c2nccc(Nc3cc4c(cn3)c(C(N)=O)nn4C(C)C)n2)CC1 [Example 11, 1-Isopropyl-6-((2-(4-methoxypiperidin-1-yl)pyrimidin-4-yl)amino)-1H-pyrazolo[4,3-c]pyridine-3-carboxamide]	Ki [2]: 29.1 nM
> 10000 nM	CC(C)n1nc(N2C[C@H](O)[C@@H](O)C2)c2cnc(Nc3ccnc(N4CCC(C)(O)CC4)n3)cc21 [Example 192, (3S,4S)-1-(6-(2-(4-Hydroxy-4-methylpiperidin-1-yl)pyrimidin-4-ylamino)-1-isopropyl-1H-pyrazolo[4,3-c]pyridin-3-yl)pyrrolidine-3,4-diol]	
